Key:
Assay in all cases: relative viability (nuclei count vs DMSO), 5 days (fraction); higher = more cells survive
[1] = test system: NCI-H2085
How it was run: (§1)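 Relative viability equals treated-well nuclei counts divided by vehicle-well nuclei counts. Counts came from 4× images of lung cancer cell lines grown in 1536-well plates for 5 days after pin-tool dosing on the day after seeding. Dosing used one drug alone or a fixed anchor-drug dose plus five library-drug doses (not always all listed) in √10 steps, and values are medians of duplicate plates.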

[2] = test system: LXF-289
How it was run: as §1

[3] = test system: NCI-H661
How it was run: as §1

[4] = test system: LC-2-ad
How it was run: as §1

[5] = test system: EMC-BAC-2
How it was run: as §1

[6] = test system: H3255
How it was run: as §1

[7] = test system: COR-L 105
How it was run: as §1

[8] = test system: CAL-12T
How it was run: as §1

[9] = test system: NCI-H2347
How it was run: as §1

[10] = test system: PC-3 [JPC-3]
How it was run: as §1

[11] = test system: EKVX
How it was run: as §1

[12] = test system: NCI-H1437
How it was run: as §1

[13] = test system: NCI-H1651
How it was run: as §1

[14] = test system: NCI-H2228
How it was run: as §1

[15] = test system: SK-LU-1
How it was run: as §1

[16] = test system: NCI-H1755
How it was run: as §1

[17] = test system: NCI-H1915
How it was run: as §1

[18] = test system: NCI-H2087
How it was run: as §1

[19] = test system: SK-MES-1
How it was run: as §1

[20] = test system: LK-2
How it was run: as §1

[21] = test system: NCI-H1944
How it was run: as §1

Compound: Cc1cnc(-c2cnc(NCCNc3ccc(C#N)cn3)nc2-c2ccc(Cl)cc2Cl)[nH]1 + CC(C)C[C@H](NC(=O)[C@H](Cc1ccccc1)NC(=O)c1cnccn1)B(O)O [Bortezomib] (partner 0.002 µM)
- relative viability ([1]; first compound 0.08 µM): 1.12
- relative viability ([1]; first compound 0.253 µM): 1.17
- relative viability ([1]; first compound 0.8 µM): 0.957
- relative viability ([1]; first compound 2.53 µM): 1.02
- relative viability ([2]; first compound 0.08 µM): 1.04
- relative viability ([2]; first compound 0.253 µM): 0.946
- relative viability ([2]; first compound 0.8 µM): 1.09
- relative viability ([2]; first compound 2.53 µM): 1.11
- relative viability ([3]; first compound 0.08 µM): 0.951
- relative viability ([3]; first compound 0.253 µM): 0.789
- relative viability ([3]; first compound 0.8 µM): 0.836
- relative viability ([3]; first compound 2.53 µM): 0.719
- relative viability ([4]; first compound 0.08 µM): 1.19
- relative viability ([4]; first compound 0.8 µM): 1.04
- relative viability ([4]; first compound 2.53 µM): 0.855
- relative viability ([5]; first compound 0.08 µM): 1.17
- relative viability ([5]; first compound 0.253 µM): 1.07
- relative viability ([5]; first compound 0.8 µM): 1.01
- relative viability ([5]; first compound 2.53 µM): 1.07
- relative viability ([6]; first compound 0.08 µM): 0.91
- relative viability ([6]; first compound 0.253 µM): 0.563
- relative viability ([6]; first compound 0.8 µM): 0.95
- relative viability ([6]; first compound 2.53 µM): 0.656
- relative viability ([7]; first compound 0.08 µM): 0.898
- relative viability ([7]; first compound 0.253 µM): 0.754
- relative viability ([7]; first compound 0.8 µM): 0.62
- relative viability ([7]; first compound 2.53 µM): 0.445
- relative viability ([8]; first compound 0.253 µM): 0.902
- relative viability ([8]; first compound 2.53 µM): 0.975
- relative viability ([9]; first compound 0.08 µM): 0.812
- relative viability ([9]; first compound 0.253 µM): 0.914
- relative viability ([9]; first compound 0.8 µM): 1.16
- relative viability ([9]; first compound 2.53 µM): 1.13
- relative viability ([10]; first compound 0.08 µM): 0.791
- relative viability ([10]; first compound 0.253 µM): 0.818
- relative viability ([10]; first compound 0.8 µM): 0.811
- relative viability ([10]; first compound 2.53 µM): 0.869
- relative viability ([11]; first compound 0.08 µM): 0.93
- relative viability ([11]; first compound 0.253 µM): 0.948
- relative viability ([11]; first compound 0.8 µM): 0.975
- relative viability ([11]; first compound 2.53 µM): 0.961
- relative viability ([12]; first compound 0.08 µM): 0.536
- relative viability ([12]; first compound 0.253 µM): 0.475
- relative viability ([12]; first compound 0.8 µM): 0.451
- relative viability ([12]; first compound 2.53 µM): 0.472
- relative viability ([13]; first compound 0.08 µM): 0.965
- relative viability ([13]; first compound 0.253 µM): 0.883
- relative viability ([13]; first compound 0.8 µM): 0.937
- relative viability ([13]; first compound 2.53 µM): 0.92
- relative viability ([14]; first compound 0.08 µM): 1.04
- relative viability ([14]; first compound 0.253 µM): 0.879
- relative viability ([14]; first compound 0.8 µM): 0.986
- relative viability ([14]; first compound 2.53 µM): 0.912
- relative viability ([15]; first compound 0.08 µM): 1.26
- relative viability ([15]; first compound 0.253 µM): 0.993
- relative viability ([15]; first compound 0.8 µM): 1.34
- relative viability ([15]; first compound 2.53 µM): 1.13
- relative viability ([16]; first compound 0.08 µM): 1.02
- relative viability ([16]; first compound 0.253 µM): 0.889
- relative viability ([16]; first compound 0.8 µM): 0.828
- relative viability ([16]; first compound 2.53 µM): 0.994
- relative viability ([17]; first compound 0.08 µM): 0.977
- relative viability ([17]; first compound 0.8 µM): 1.02
- relative viability ([17]; first compound 2.53 µM): 0.975
- relative viability ([18]; first compound 0.08 µM): 0.997
- relative viability ([18]; first compound 0.253 µM): 0.683
- relative viability ([18]; first compound 0.8 µM): 0.771
- relative viability ([18]; first compound 2.53 µM): 0.808

Compound: Cc1cnc(-c2cnc(NCCNc3ccc(C#N)cn3)nc2-c2ccc(Cl)cc2Cl)[nH]1 + C[C@@H](Oc1cc(-c2cnn(C3CCNCC3)c2)cnc1N)c1c(Cl)ccc(F)c1Cl [Crizotinib] (partner 1 µM)
- relative viability ([1]; first compound 0.08 µM): 0.719
- relative viability ([1]; first compound 0.253 µM): 0.888
- relative viability ([1]; first compound 0.8 µM): 1.06
- relative viability ([1]; first compound 2.53 µM): 0.974
- relative viability ([19]; first compound 0.08 µM): 0.97
- relative viability ([19]; first compound 0.253 µM): 0.937
- relative viability ([19]; first compound 0.8 µM): 1.05
- relative viability ([19]; first compound 2.53 µM): 0.941
- relative viability ([2]; first compound 0.08 µM): 0.852
- relative viability ([2]; first compound 0.253 µM): 0.796
- relative viability ([2]; first compound 0.8 µM): 0.839
- relative viability ([2]; first compound 2.53 µM): 0.87
- relative viability ([3]; first compound 0.08 µM): 0.924
- relative viability ([3]; first compound 0.253 µM): 0.941
- relative viability ([3]; first compound 0.8 µM): 0.947
- relative viability ([3]; first compound 2.53 µM): 0.867
- relative viability ([4]; first compound 0.08 µM): 0.489
- relative viability ([4]; first compound 2.53 µM): 0.426
- relative viability ([5]; first compound 0.08 µM): 0.841
- relative viability ([5]; first compound 0.253 µM): 0.739
- relative viability ([5]; first compound 0.8 µM): 0.814
- relative viability ([5]; first compound 2.53 µM): 0.703
- relative viability ([6]; first compound 0.08 µM): 1.03
- relative viability ([6]; first compound 0.253 µM): 0.809
- relative viability ([6]; first compound 0.8 µM): 0.853
- relative viability ([6]; first compound 2.53 µM): 0.79
- relative viability ([7]; first compound 0.08 µM): 0.869
- relative viability ([7]; first compound 0.253 µM): 0.716
- relative viability ([7]; first compound 0.8 µM): 0.706
- relative viability ([7]; first compound 2.53 µM): 0.529
- relative viability ([8]; first compound 0.08 µM): 0.722
- relative viability ([8]; first compound 0.253 µM): 0.507
- relative viability ([8]; first compound 0.8 µM): 0.529
- relative viability ([8]; first compound 2.53 µM): 0.376
- relative viability ([9]; first compound 0.08 µM): 0.734
- relative viability ([9]; first compound 0.253 µM): 0.632
- relative viability ([9]; first compound 0.8 µM): 0.753
- relative viability ([9]; first compound 2.53 µM): 0.741
- relative viability ([10]; first compound 0.08 µM): 0.936
- relative viability ([10]; first compound 0.253 µM): 0.894
- relative viability ([10]; first compound 0.8 µM): 0.999
- relative viability ([10]; first compound 2.53 µM): 0.953
- relative viability ([11]; first compound 0.08 µM): 0.938
- relative viability ([11]; first compound 0.253 µM): 0.823
- relative viability ([11]; first compound 0.8 µM): 0.854
- relative viability ([11]; first compound 2.53 µM): 0.993
- relative viability ([12]; first compound 0.08 µM): 0.912
- relative viability ([12]; first compound 0.253 µM): 0.943
- relative viability ([12]; first compound 0.8 µM): 0.944
- relative viability ([12]; first compound 2.53 µM): 0.981
- relative viability ([13]; first compound 0.08 µM): 0.915
- relative viability ([13]; first compound 0.253 µM): 0.797
- relative viability ([13]; first compound 0.8 µM): 0.852
- relative viability ([13]; first compound 2.53 µM): 0.825
- relative viability ([20]; first compound 0.08 µM): 0.194
- relative viability ([20]; first compound 0.253 µM): 0.239
- relative viability ([20]; first compound 0.8 µM): 0.242
- relative viability ([20]; first compound 2.53 µM): 0.236
- relative viability ([14]; first compound 0.08 µM): 0.47
- relative viability ([14]; first compound 0.253 µM): 0.412
- relative viability ([14]; first compound 0.8 µM): 0.612
- relative viability ([14]; first compound 2.53 µM): 0.619
- relative viability ([21]; first compound 0.08 µM): 1.11
- relative viability ([21]; first compound 0.8 µM): 1.16
- relative viability ([21]; first compound 2.53 µM): 1.1
- relative viability ([15]; first compound 0.08 µM): 1.01
- relative viability ([15]; first compound 0.253 µM): 0.918
- relative viability ([15]; first compound 0.8 µM): 1.17
- relative viability ([15]; first compound 2.53 µM): 1.3
- relative viability ([16]; first compound 0.08 µM): 0.853
- relative viability ([16]; first compound 0.253 µM): 0.856
- relative viability ([16]; first compound 0.8 µM): 0.824
- relative viability ([16]; first compound 2.53 µM): 0.804
- relative viability ([17]; first compound 0.08 µM): 0.85
- relative viability ([17]; first compound 0.8 µM): 0.896
- relative viability ([17]; first compound 2.53 µM): 0.931
- relative viability ([18]; first compound 0.08 µM): 0.744
- relative viability ([18]; first compound 0.253 µM): 0.823
- relative viability ([18]; first compound 0.8 µM): 0.862
- relative viability ([18]; first compound 2.53 µM): 0.693

— the supplement of paper PMC10307832
